# Experiments:
# [1] = tested on: cultured hippocampal neurons; assay: Dendritic spine morphology of GFP-Actin transfected neurons by confocal microscopy; assay type: cell-based, rat; conditions: for spine head width: untreated 0.753±0.038 μm; for spine length: untreated 1.819±0.064 μm; for spine density: untreated 4.58±0.43
# Protocol: (§1) Cultures of dissociated hippocampal neurons from embryonic day 18 rats were prepared as previously described (51). Cultured neurons at 10 days in vitro (DIV) were exposed to arginine N-methyltransferase inhibitor-1 (AMI-1; 2.5 or 10 μM, Enzo Life Sciences) in plating media minus additional glutamate for the indicated times.
# (§2) To identify the effects of genetic knock-down of CARM1 on dendritic morphology and synaptic clustering of synapsin, NR2B, and PSD-95, hippocampal neurons were first transfected with the construct pCAG-mGFP-Actin [a gift from Ryohei Yasuda (Addgene plasmid #21948)] at 7 DIV with Lipofectamine 2000 (Invitrogen) following the manufacturer's protocol. After a 2-day incubation, neurons were untreated or transduced with rat CARM1- or PRMT1-specific siRNA or scrambled control siRNA lentiviral particles (5×10^3 viral particles/μl, Santa Cruz) at a multiplicity of infection (MOI) of 4 to ensure efficient infection following the manufacturer's protocol, followed by overnight incubation. After a media change with plating media minus glutamate, cells were incubated for an additional 4 days, and then a portion of the cells was either lysed and used for total RNA isolation and RT-qPCR experiments, lysed and used for immunoblot analysis, or fixed for immunocytochemical analysis.
# (§3) Cultures neurons were treated as described above and then fixed in 2% paraformaldehyde/4% sucrose/PBS for 10 min at room temperature (RT) followed by methanol for 20 min at −20° C. The fixed neurons were incubated in preblock buffer (20 mM phosphate buffer, pH 7.4, 5% normal goat serum, 0.05% Triton X-100, and 450 mM NaCl) at 4° C. overnight with the following primary antibodies: mouse anti-CARM1 (1:200, Cell Signaling), rabbit anti-CARM1 (1:200, Cell Signaling), rabbit anti-NR2B (1:200, Millipore), mouse anti-NR2B (1:150, Thermo Fisher), mouse anti-PSD-95 (1:100, Cell Signaling), mouse anti-synapsin (1:200, Santa Cruz), or rabbit anti-synapsin (1:250, Millipore), followed by incubation with the appropriate secondary antibodies (Alexa 488-anti-rabbit or 546-anti-mouse; each at 1:1000, Invitrogen) in preblock buffer at RT for 1 hr. After immunostaining, the cells were mounted as previously described (50) and viewed on a Zeiss LSM 710 laser-scanning confocal microscope. Images were acquired under a 63× or 100× oil immersion objective lens and scanned for further analysis.
# (§4) Confocal microscope images for each treatment from each of 3 independent sets of experiments were imported into Image J (NIH) software. To determine the proportion of CARM1 signal that co-localizes with PSD-95 or synapsin, Image J (NIH) software was used with Just Another Colocalization (JACoP) plugin set. A Mander's coefficient was calculated and the average value (N=10) was further analyzed. Dendritic spine length (from dendritic shaft to the top of spine head) and dendritic spine width (diameter of the widest part of spine head) were measured and dendritic spine density (number of spines/10 μm of dendrite) was also counted. Dendritic spine shape (stubby, mushroom, or filopodium) was identified as described in previous research (5, 21). After measuring spine length (the distance from the base of the neck to the furthest point on the spine heads) and diameter of spine head and neck, the ratio from each spine was calculated and compared. […] Mushroom spines were judged if the diameter of the head was three times larger than the diameter of their necks. Stubby spines were judged if the diameter of the neck was similar to the total length of the spine.
# [2] = tested on: cultured hippocampal neurons; assay: Synaptic clustering of NR2B, PSD-95 and synapsin by immunocytochemistry; assay type: cell-based, rat; conditions: 10 μM for 4 days from 10 DIV; compared to untreated cells
# Protocol: as §1, §2, §3, §4
# [3] = tested on: HuD-mRNA binding; conditions: hippocampal neurons in vitro; previous studies (ref. 22); cited from earlier work
# [4] = inhibitor treatment for 4 days, compared with untreated
smiles,measurement,setting,value
"O=C(Nc1ccc2c([O-])cc(S(=O)(=O)[O-])cc2c1)Nc1ccc2c([O-])cc(S(=O)(=O)[O-])cc2c1.[Na+].[Na+].[Na+].[Na+] [AMI-1, 7,7′-(carbonylbis(azanediyl))bis(4-oxidonaphthalene-2-sulfonate), sodium salt]",spine head width,[1]; 2.5 μM for 4 days from 10 DIV,0.899±0.052 μm
same,spine length,[1]; 2.5 μM for 4 days from 10 DIV,1.748±0.093 μm
same,spine density,[1]; 2.5 μM for 4 days from 10 DIV,4.49±0.54 spines per 10 μm dendrite
same,spine head width,"[1]; 10 μM for 4 days from 10 DIV, P=0.0085",0.982±0.044 μm
same,spine length,"[1]; 10 μM for 4 days from 10 DIV, not statistically significant",1.634±0.072 μm
same,spine density,"[1]; 10 μM for 4 days from 10 DIV, no significant difference",5.54±0.62 spines per 10 μm dendrite
same,"proportion of filopodia-type, including thin-type, spines",[1]; [4],dramatic decrease
same,proportion of mushroom-type spines,[1]; [4],significantly increased
same,NR2B number of clusters,[2],increase
same,NR2B synaptic cluster size,[2],increase
same,PSD-95 number of clusters,[2],increase
same,PSD-95 synaptic cluster size,[2],increase
same,synapsin synaptic cluster number,[2],no difference
same,synapsin synaptic cluster size,[2],no difference
same,"HuD-mRNA binding and the stability and expression of NTFs, including BDNF",[3],increased

# Reference: patent US20190054070A1, “Methods and Compositions for Regenerative Synaptogenesis” (priority 2017, published 2019)
